Assay results reported in patent US20230226005A1, “Methods of Treating, Ameliorating, Shortening Duration, and/or Reversing Symptoms and/or Complications of a Coronavirus Infection” (Yale University, priority 2020, published 2023).

How the values were obtained:
Type in all cases: in vivo
[1] = test system: COVID-19 infection; assay: Phase IIa study: COVID-19 PRO daily self-score, symptom severity score (items 1-33, 0-132)
[2] = test system: COVID-19 infection; assay: Phase IIa study: nose-family symptom score
[3] = test system: COVID-19 infection; assay: Phase IIa study: body-family symptom score; details: for body-family symptoms, Fitzmaurice mixed effects model, Effect: Camostat vs Placebo

**Q.** How did the “symptom severity score, Negative binomial model, A: Camostat arm” value ([1]; day 11) turn out when CN(C)C(=O)COC(=O)Cc1ccc(OC(=O)c2ccc(NC(=N)N)cc2)cc1 [camostat, 4-[[4-[(Aminoiminomethyl)amino]benzoyl]oxy]benzeneacetic acid 2-(dimethylamino)-2-oxoethyl ester] was run?
**A.** The value was 8.49 (2.3).

**Q.** What about the “symptom severity score, Negative binomial model, B − A” value ([1]; day 11) of the same compound?
**A.** The value was 1.17 (0.35).

**Q.** What about the “COVID-19 symptom severity score raw Mean” value ([1]; day 12) of the same compound?
**A.** Its value is 9.6.

**Q.** What about the “symptom score, Fitzmaurice mixed effects model, A: Camostat arm” value (from here on “symptom score … Camostat arm”) ([1]; day 12) of the same compound?
**A.** The value was 8.18 (2.69).

**Q.** What about the “symptom score, Fitzmaurice mixed effects model, B − A (placebo − camostat)” value (shortened to “symptom score … (placebo − camostat)”) ([1]; day 12) of the same compound?
**A.** The value was 2.39 (2.88).

**Q.** What about the “symptom severity score, ANCOVA linear mixed model, A: Camostat arm” value ([1]; day 12) of the same compound?
**A.** Its value is −22.87 (2.22).

**Q.** What about the “symptom severity score, ANCOVA linear mixed model, B − A (placebo − camostat)” value (from here on “symptom severity score … (placebo − camostat)”) ([1]; day 12) of the same compound?
**A.** The value was 1.46 (3.09).

**Q.** And the “symptom severity score, Negative binomial model, A: Camostat arm” value ([1]; day 12)?
**A.** Its value is 9.06 (2.18).

**Q.** And the “symptom severity score, Negative binomial model, B − A” value ([1]; day 12)?
**A.** Its value is 0.94 (0.25).

**Q.** What about the “COVID-19 symptom severity score raw Mean” value ([1]; day 13) of the same compound?
**A.** The value was 9.7.

**Q.** And the “symptom score … Camostat arm” value ([1]; day 13)?
**A.** The value was 7.87 (2.75).

**Q.** And the “symptom score … (placebo − camostat)” value ([1]; day 13)?
**A.** Its value is 2.11 (2.95).

**Q.** What about the “symptom severity score, ANCOVA linear mixed model, A: Camostat arm” value ([1]; day 13) of the same compound?
**A.** Its value is −23.17 (2.29).

**Q.** And the “symptom severity score … (placebo − camostat)” value ([1]; day 13)?
**A.** The value was 1.17 (3.15).

**Q.** And the “symptom severity score, Negative binomial model, A: Camostat arm” value ([1]; day 13)?
**A.** The value was 8.9 (2.27).

**Q.** And the “symptom severity score, Negative binomial model, B − A” value ([1]; day 13)?
**A.** Its value is 0.88 (0.26).

**Q.** And the “COVID-19 symptom severity score raw Mean” value ([1]; day 14)?
**A.** The value was 8.2.

**Q.** And the “symptom score … Camostat arm” value ([1]; day 14)?
**A.** The value was 7.8 (2.75).

**Q.** And the “symptom score … (placebo − camostat)” value ([1]; day 14)?
**A.** The value was 2.24 (2.97).

**Q.** And the “symptom severity score, ANCOVA linear mixed model, A: Camostat arm” value ([1]; day 14)?
**A.** Its value is −23.26 (2.29).

**Q.** And the “symptom severity score … (placebo − camostat)” value ([1]; day 14)?
**A.** The value was 1.32 (3.16).

**Q.** And the “symptom severity score, Negative binomial model, A: Camostat arm” value ([1]; day 14)?
**A.** Its value is 8.11 (2.11).

**Q.** And the “symptom severity score, Negative binomial model, B − A” value ([1]; day 14)?
**A.** Its value is 1.03 (0.31).

**Q.** What about the “symptom severity scores compared to placebo” value ([1]; days 5 through 10, did not reach statistical significance) of the same compound?
**A.** The value was “lower”.

**Q.** What about the “nose-family symptom score, Fitzmaurice model, Camostat” value ([2]; day 0) of the same compound?
**A.** Its value is 7.6 (0.5).

**Q.** What about the “nose-family symptom score, Fitzmaurice model, Camostat” value ([2]; day 1) of the same compound?
**A.** The value was 6.6 (0.6).

**Q.** And the “nose-family symptom score, Fitzmaurice model, Effect (placebo vs camostat)” value ([2]; day 1)?
**A.** The value was 1.3 (0.7).

**Q.** What about the “nose-family symptom score, Fitzmaurice model, Camostat” value ([2]; day 2) of the same compound?
**A.** Its value is 6.6 (0.6).

**Q.** And the “nose-family symptom score, Fitzmaurice model, Effect (placebo vs camostat)” value ([2]; day 2)?
**A.** The value was 0 (0.7).

**Q.** And the “nose-family symptom score, Fitzmaurice model, Camostat” value ([2]; day 3)?
**A.** The value was 5.7 (0.6).

**Q.** And the “nose-family symptom score, Fitzmaurice model, Effect (placebo vs camostat)” value ([2]; day 3)?
**A.** The value was 0.5 (0.7).

**Q.** And the “nose-family symptom score, Fitzmaurice model, Camostat” value ([2]; day 4)?
**A.** The value was 5.6 (0.6).

**Q.** What about the “nose-family symptom score, Fitzmaurice model, Effect (placebo vs camostat)” value ([2]; day 4) of the same compound?
**A.** The value was 0 (0.7).

**Q.** What about the “nose-family symptom score, Fitzmaurice model, Camostat” value ([2]; day 5) of the same compound?
**A.** Its value is 5.3 (0.6).

**Q.** What about the “nose-family symptom score, Fitzmaurice model, Effect (placebo vs camostat)” value ([2]; day 5) of the same compound?
**A.** The value was 1 (0.7).

**Q.** What about the “nose-family symptom score, Fitzmaurice model, Camostat” value ([2]; day 6) of the same compound?
**A.** The value was 3.9 (0.6).

**Q.** And the “nose-family symptom score, Fitzmaurice model, Effect (placebo vs camostat)” value ([2]; day 6)?
**A.** Its value is 1.4 (0.7).

**Q.** And the “nose-family symptom score, Fitzmaurice model, Camostat” value ([2]; day 7)?
**A.** Its value is 3.6 (0.6).

**Q.** And the “nose-family symptom score, Fitzmaurice model, Effect (placebo vs camostat)” value ([2]; day 7)?
**A.** The value was 1.2 (0.7).

**Q.** And the “nose-family symptom score, Fitzmaurice model, Camostat” value ([2]; day 8)?
**A.** Its value is 3.3 (0.6).

**Q.** And the “nose-family symptom score, Fitzmaurice model, Effect (placebo vs camostat)” value ([2]; day 8)?
**A.** Its value is 1.5 (0.7).

**Q.** And the “nose-family symptom score, Fitzmaurice model, Camostat” value ([2]; day 9)?
**A.** The value was 2.9 (0.6).

**Q.** And the “nose-family symptom score, Fitzmaurice model, Effect (placebo vs camostat)” value ([2]; day 9)?
**A.** Its value is 1.3 (0.7).

**Q.** What about the “nose-family symptom score, Fitzmaurice model, Camostat” value ([2]; day 10) of the same compound?
**A.** Its value is 2.9 (0.6).

**Q.** What about the “nose-family symptom score, Fitzmaurice model, Effect (placebo vs camostat)” value ([2]; day 10) of the same compound?
**A.** Its value is 0.9 (0.7).

**Q.** And the “nose-family symptom score, Fitzmaurice model, Camostat” value ([2]; day 11)?
**A.** The value was 3 (0.6).

**Q.** What about the “nose-family symptom score, Fitzmaurice model, Effect (placebo vs camostat)” value ([2]; day 11) of the same compound?
**A.** The value was 0.4 (0.7).

**Q.** What about the “nose-family symptom score, Fitzmaurice model, Camostat” value ([2]; day 12) of the same compound?
**A.** Its value is 2.5 (0.6).

**Q.** What about the “nose-family symptom score, Fitzmaurice model, Effect (placebo vs camostat)” value ([2]; day 12) of the same compound?
**A.** Its value is 0.7 (0.7).

**Q.** And the “nose-family symptom score, Fitzmaurice model, Camostat” value ([2]; day 13)?
**A.** Its value is 2.7 (0.6).

**Q.** What about the “nose-family symptom score, Fitzmaurice model, Effect (placebo vs camostat)” value ([2]; day 13) of the same compound?
**A.** The value was 0.1 (0.7).

**Q.** What about the “nose-family symptom score, Fitzmaurice model, Camostat” value ([2]; day 14) of the same compound?
**A.** Its value is 2.7 (0.6).

**Q.** What about the “nose-family symptom score, Fitzmaurice model, Effect (placebo vs camostat)” value ([2]; day 14) of the same compound?
**A.** Its value is 0.2 (0.8).

**Q.** What about the “body-family symptoms, Fitzmaurice mixed effects model, Camostat” value (from here on “body-family symptoms … Camostat”) ([3]; Day 0) of the same compound?
**A.** Its value is 17.1 (1.2).

**Q.** What about the “body-family symptoms … Camostat” value ([3]; Day 1) of the same compound?
**A.** Its value is 14.3 (1.5).

**Q.** What about the “body-family symptoms, Fitzmaurice mixed effects model, Effect” value ([3]; Day 1) of the same compound?
**A.** Its value is −0.6 (1.7).

**Q.** And the “body-family symptoms … Camostat” value ([3]; Day 2)?
**A.** Its value is 13.6 (1.5).

**Q.** What about the “body-family symptoms, Fitzmaurice mixed effects model, Effect” value ([3]; Day 2) of the same compound?
**A.** Its value is −2.1 (1.7).

**Q.** What about the “body-family symptoms … Camostat” value ([3]; Day 3) of the same compound?
**A.** The value was 11.9 (1.5).

**Q.** And the “body-family symptoms, Fitzmaurice mixed effects model, Effect” value ([3]; Day 3)?
**A.** The value was −0.8 (1.7).

**Q.** What about the “body-family symptoms … Camostat” value ([3]; Day 4) of the same compound?
**A.** The value was 8.9 (1.5).

**Q.** What about the “body-family symptoms, Fitzmaurice mixed effects model, Effect” value ([3]; Day 4) of the same compound?
**A.** The value was 0.9 (1.7).

**Q.** And the “body-family symptoms … Camostat” value ([3]; Day 5)?
**A.** The value was 7.3 (1.5).

**Q.** What about the “body-family symptoms, Fitzmaurice mixed effects model, Effect” value ([3]; Day 5) of the same compound?
**A.** Its value is 4.2 (1.7).

**Q.** And the “body-family symptoms … Camostat” value ([3]; Day 6)?
**A.** The value was 5.2 (1.5).

**Q.** What about the “body-family symptoms, Fitzmaurice mixed effects model, Effect” value ([3]; Day 6) of the same compound?
**A.** Its value is 4.4 (1.7).

**Q.** What about the “body-family symptoms … Camostat” value ([3]; Day 7) of the same compound?
**A.** Its value is 4.9 (1.6).

**Q.** What about the “body-family symptoms, Fitzmaurice mixed effects model, Effect” value ([3]; Day 7) of the same compound?
**A.** The value was 2.8 (1.7).

**Q.** And the “body-family symptoms … Camostat” value ([3]; Day 8)?
**A.** The value was 3.9 (1.6).

**Q.** And the “body-family symptoms, Fitzmaurice mixed effects model, Effect” value ([3]; Day 8)?
**A.** Its value is 3.1 (1.8).

**Q.** And the “body-family symptoms … Camostat” value ([3]; Day 9)?
**A.** Its value is 3.8 (1.6).

**Q.** What about the “body-family symptoms, Fitzmaurice mixed effects model, Effect” value ([3]; Day 9) of the same compound?
**A.** The value was 3.1 (1.8).

**Q.** And the “body-family symptoms … Camostat” value ([3]; Day 10)?
**A.** Its value is 3.3 (1.6).

**Q.** And the “body-family symptoms, Fitzmaurice mixed effects model, Effect” value ([3]; Day 10)?
**A.** Its value is 3.1 (1.8).

**Q.** What about the “body-family symptoms … Camostat” value ([3]; Day 11) of the same compound?
**A.** The value was 3 (1.6).

**Q.** What about the “body-family symptoms, Fitzmaurice mixed effects model, Effect” value ([3]; Day 11) of the same compound?
**A.** The value was 2.8 (1.8).

**Q.** What about the “body-family symptoms … Camostat” value ([3]; Day 12) of the same compound?
**A.** Its value is 3.8 (1.6).

**Q.** And the “body-family symptoms, Fitzmaurice mixed effects model, Effect” value ([3]; Day 12)?
**A.** The value was 1.6 (1.8).

**Q.** And the “body-family symptoms … Camostat” value ([3]; Day 13)?
**A.** The value was 3 (1.6).

**Q.** And the “body-family symptoms, Fitzmaurice mixed effects model, Effect” value ([3]; Day 13)?
**A.** The value was 2.4 (1.8).

**Q.** What about the “body-family symptoms … Camostat” value ([3]; Day 14) of the same compound?
**A.** The value was 3.2 (1.6).

**Q.** And the “body-family symptoms, Fitzmaurice mixed effects model, Effect” value ([3]; Day 14)?
**A.** Its value is 2 (1.8).
